Source: US5834257A, “α-agarase and production process of oligosaccharides and monosaccharides” (Japan Tobacco Inc., priority 1995, dated 1998)

Tested on: α-NAOS hydrolase (α-agarase) derived from Vibrio sp. JT0107-L4, N-terminal sequence SEQ ID NO:2
Assay: Michaelis constant and maximum velocity by Lineweaver-Burk plot, neoagarobiose degradation measured by HPLC
Assay type: biochemical
Conditions: substrate neoagarobiose, 20 mM potassium phosphate buffer pH 7.8, 30° C.
Method: The activity determination of purified or partially purified products of this enzyme is conducted as follows. After an enzyme reaction with neoagarobiose as the substrate, the amount of degraded neoagarobiose is calculated from the amount of intact neoagarobiose which is determined by HPLC. Details are as follows. A 0.1% solution of neoagarobiose dissolved in 20 mM potassium phosphate buffer (pH 7.8) is prepared. This solution, as the substrate, in a volume of 90 μl was mixed with 10 μl of the enzyme solution. The mixed solution is incubated at 30° C. for 5 to 30 minutes, preferably for 10 minutes; the reaction is stopped by heating in boiling water for 1 minute. This reaction solution in a volume of 10 μl is applied to a column, Capcell pak C-18 (manufactured by Shiseido) which is of 4.5 mm in internal diameter and 250 mm in length, and eluted at a flow rate of 1 ml/min using water as the eluent; the amount of neoagarobiose not degraded by the enzyme reaction, which has a retention time of about 4.5 minutes, is quantified. The amount of degraded neoagarobiose is calculated inversely from the value in this measurement, assuming that the amount of enzyme degrading 1 μmol neoagarobiose per minute is 1 U. Neoagarobiose consisting of 3,6-anhydro-L-galactose and D-galactose through α-1,3 bond was used as the substrate. Various substrate solutions of different concentration were prepared. […]

`OC[C@H]1OC(O)[C@H](O)[C@@H](O[C@@H]2O[C@H]3CO[C@@H]([C@@H]2O)[C@@H]3O)[C@H]1O` (some centres unmarked) [Neoagarobiose] showed a Km of 4.28 ± 5 mM and a maximum velocity (1 U = 1 μmol neoagarobiose degraded per minute) of 87 U/mg-protein.
